Experimental data as given in patent publication US20030232839A1, “Treatment of sleeping disorders using CNS sleep target modulators” (Hypnion, Inc., priority 2002, published 2003).

How the values were obtained:
rat 5-HT2A receptor = rat 5-HT2A receptor (Rattus norvegicus, UniProt P14842); assay: 5-HT2A binding study, rat receptor; conditions: read-out: 5HT-2a Ki, Rat
human 5-HT2A receptor = human 5-HT2A receptor (Homo sapiens, UniProt P28223); assay: 5-HT2A binding study, human receptor; conditions: read-out: 5HT-2a Ki, Human
Male Wistar rats = assay: SCORE-2000 sleep-wake assay (EEG/EMG, locomotor activity, body temperature)
[1] = 3 mg/kg and 10 mg/kg IP at CT-5

Sequence of rat 5-HT2A receptor (P14842 whole entry): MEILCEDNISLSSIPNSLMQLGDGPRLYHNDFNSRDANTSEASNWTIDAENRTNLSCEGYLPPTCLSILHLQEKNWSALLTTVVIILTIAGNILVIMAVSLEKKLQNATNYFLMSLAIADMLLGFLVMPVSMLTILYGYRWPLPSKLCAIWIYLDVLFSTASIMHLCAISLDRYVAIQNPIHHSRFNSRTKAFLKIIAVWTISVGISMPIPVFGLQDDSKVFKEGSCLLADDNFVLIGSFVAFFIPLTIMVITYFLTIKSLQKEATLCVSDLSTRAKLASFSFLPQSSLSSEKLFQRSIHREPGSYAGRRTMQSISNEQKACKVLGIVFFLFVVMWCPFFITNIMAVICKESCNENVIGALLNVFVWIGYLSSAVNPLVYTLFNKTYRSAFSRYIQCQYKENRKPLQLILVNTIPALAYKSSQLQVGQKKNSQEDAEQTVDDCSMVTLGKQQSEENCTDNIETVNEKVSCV
Sequence of human 5-HT2A receptor (P28223 whole entry): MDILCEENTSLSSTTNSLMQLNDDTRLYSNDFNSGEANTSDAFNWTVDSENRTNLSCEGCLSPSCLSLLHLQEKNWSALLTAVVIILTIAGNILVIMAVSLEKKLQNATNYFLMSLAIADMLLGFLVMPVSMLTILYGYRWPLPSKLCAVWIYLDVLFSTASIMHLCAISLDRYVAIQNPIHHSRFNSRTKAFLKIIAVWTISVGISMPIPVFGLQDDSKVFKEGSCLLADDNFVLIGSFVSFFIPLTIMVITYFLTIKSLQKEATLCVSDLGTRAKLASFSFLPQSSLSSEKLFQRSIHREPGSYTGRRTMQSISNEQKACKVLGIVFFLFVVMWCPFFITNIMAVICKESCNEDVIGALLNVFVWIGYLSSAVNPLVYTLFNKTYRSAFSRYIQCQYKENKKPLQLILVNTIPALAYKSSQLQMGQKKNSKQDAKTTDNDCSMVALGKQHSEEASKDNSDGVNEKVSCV

Row | SMILES | Ki (rat 5-HT2A receptor) [nM] | Ki (human 5-HT2A receptor) [nM] | activity on sleep-wakefulness in all measured variables (Male Wistar rats; 30 mg/kg) | increasing sleep and sleep consolidation (Male Wistar rats; 30 mg/kg) | duration of interference with sleep post-treatment (Male Wistar rats; [1]) [h] | duration of reduction in nonREM sleep time post-treatment (Male Wistar rats; [1]) [h] | rebound hypersomnolence after sleep interference (Male Wistar rats; [1])
1 | Cl.O=C(O)C1CN(CCCn2nc3ccccn3c2=O)CCN1c1cccc(Cl)c1 (stereo not shown) [HY-2724] | 989 | > 10000 | inactive | ineffective |  |  | 
2 | Clc1cccc(N2CCNCC2)c1 [m-CPP, meta-chlorophenylpiperazine] |  |  |  |  | 2 to 3 | 2 to 3 | followed by a rebound hypersomnolence
